System: PMA-induced release of IL-6R from PBMCs from patients suffering from rheumatoid arthritis
Assay: ELISA-based IL-6R release assay, PBMCs from RA-patients
Assay type: cell-based
Conditions: Homo sapiens, PBMC; chimeric antibodies (CHO) 1 μg/ml; Batimastat 10 μM; PMA 25 ng/ml, 24 hours
Description: In contrast to Example 34, where the inhibitory effects of the antibodies of the present disclosure on PMA-induced release of endogenous IL-6R from primary human material obtained from healthy donors using peripheral blood mononuclear cells (PBMCs) were tested, this analysis was conducted to analyze the inhibitory effects of the antibodies of the present disclosure on PMA-induced release of endogenous IL-6R from primary human material obtained from patients suffering from rheumatoid arthritis (RA-patients).
In brief, on day 1, Nunc black MaxiSorp® 96-well plates (Thermo Fisher Scientific, USA) were coated overnight with 100 μl per well of mouse anti-human IL-6R capture antibody (provided as part of the DuoSet ELISA kit) at 4 μg/ml TBS at 4° C. […] Using an infinite M1000 (Tecan Group, Switzerland) microplate reader, the fluorescence of each well was collected at an excitation wavelength of 435 nm and an emission wavelength of 555 nm.

## CNC(=O)[C@H](Cc1ccccc1)NC(=O)[C@H](CC(C)C)[C@H](CSc1cccs1)C(=O)NO [Batimastat]
  inhibition at 10 µM: 104%

From US20240174744A1, “METHODS OF TREATMENT USING PROTEIN BINDERS TO IRHOM2 EPITOPES” (SCIRHOM GMBH, priority 2021, published 2024)
